Measurements reported in US20250163104A1, “MACROCYCLIC IMMUNOMODULATORS” (priority 2021, published 2025).
pIC50: −log10 of the molar value. Where a SMILES comes first, the peptide text is derived from it. Bridges are numbered along the chain shown (N, C = ends). [ ]: non-standard residue; d: D form. The star is where a group is joined. ξ: configuration not given here. Bip = N[C@@H](Cc1ccc(-c2ccccc2)cc1)C(=O)O; NMehPhe = CN[C@@H](CCc1ccccc1)C(=O)O; Cha = N[C@@H](CC1CCCCC1)C(=O)O; Ile(3ξ) = CCC(C)[C@H](N)C(=O)O; NMeDab = CN[C@@H](CCN)C(=O)O; Carboxymethyl = O=C(O)C*; Orn = NCCC[C@H](N)C(=O)O; Dab = NCC[C@H](N)C(=O)O

target: T1, human PD-1 / PD-L1-Ig binding on Jurkat cell line over-expressing human PD-1 (Jurkat-PD-1) (Homo sapiens, UniProt Q15116); assay: Jurkat-PD-1 Cell Binding High-Content Screening Assay (CBA); format: cell-based; details: Jurkat-PD-1 cells, PE-labeled PD-L1-Ig 20 nM final; read-out: Jurkat HPD1_PDL1 IC50
T1 construct: expressed in transfected cells; host or cells: Jurkat
T1 sequence (Q15116 25-288): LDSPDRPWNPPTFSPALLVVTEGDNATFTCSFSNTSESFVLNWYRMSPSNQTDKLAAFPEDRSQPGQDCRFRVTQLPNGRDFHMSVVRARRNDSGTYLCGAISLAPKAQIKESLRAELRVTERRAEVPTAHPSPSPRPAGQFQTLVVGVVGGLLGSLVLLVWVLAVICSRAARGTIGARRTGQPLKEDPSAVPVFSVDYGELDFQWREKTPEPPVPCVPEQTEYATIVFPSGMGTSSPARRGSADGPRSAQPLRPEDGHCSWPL
Procedure, shortened: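 PE-PD-L1-Ig 20 nM final; cells in DMEM/10% FCS; cpd pre-incubation 2 h, 37° C; ligand 1 h; PFA fix + Hoechst 33342; high-content imaging read-out.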

Compared with `CC(C)C[C@H]1NC(=O)[C@H](CCCN)NC(=O)[C@H](C(C)C)NC(=O)[C@H](Cc2ccc(-c3ccccc3)cc2)NC(=O)[C@H](C(C)C)NC(=O)[C@H](Cc2c[nH]c3ccccc23)NC(=O)[C@H](CC(=O)O)NC(=O)[C@H](Cc2ccc(OCC(=O)O)cc2)NC(=O)[C@H](CCc2ccccc2)N(C)C(=O)CSC[C@@H](C(=O)N[C@@H](C)C(N)=O)NC(=O)[C@H](CO)NC(=O)[C@H](C(C)C)NC(=O)[C@H](CC2CCCCC2)NC(=O)[C@H](CCN)NC1=O` [Compound 2516] ({CH2CO}-[NMehPhe]Y(Carboxymethyl)DWV[Bip]V[Orn][dL][Dab][Cha]VSCA-NH2; thioether N-14), `CCC(C)[C@@H]1NC(=O)[C@H](Cc2ccc(-c3ccccc3)cc2)NC(=O)[C@H](C(C)C)NC(=O)[C@H](Cc2c[nH]c3ccccc23)NC(=O)[C@H](CC(=O)O)NC(=O)[C@H](Cc2ccc(OCC(=O)O)cc2)NC(=O)[C@H](CCN)N(C)C(=O)CSC[C@@H](C(=O)N[C@@H](C)C(N)=O)NC(=O)[C@H](CO)NC(=O)[C@H](C(C)C)NC(=O)[C@H](CC2CCCCC2)NC(=O)[C@H](CCN)NC(=O)[C@@H](CC(C)C)NC(=O)[C@H](CCCN)NC1=O` (stereo partly drawn) [Compound 2517] ({CH2CO}-[NMeDab]Y(Carboxymethyl)DWV[Bip][Ile(3ξ)][Orn][dL][Dab][Cha]VSCA-NH2; thioether N-14) is 0.47 log units higher in pIC50: 8.00 for the first, 8.47 for the second. The second is the more potent here.

`CCC(C)[C@@H]1NC(=O)[C@H](Cc2ccc(-c3ccccc3)cc2)NC(=O)[C@H](C(C)C)NC(=O)[C@H](Cc2c[nH]c3ccccc23)NC(=O)[C@H](CC(=O)O)NC(=O)[C@H](Cc2ccc(OCC(=O)O)cc2)NC(=O)[C@H](Cc2ccncc2)NC(=O)CSC[C@@H](C(=O)N[C@@H](C)C(N)=O)NC(=O)[C@H](C(C)O)NC(=O)[C@H](C(C)C)NC(=O)[C@H](CC2CCCCC2)NC(=O)[C@H](CCN)NC(=O)[C@@H](CC(C)C)NC(=O)[C@H](CCCN)NC1=O` (stereo partly shown) [Compound 2519] and `CC(C)C[C@H]1NC(=O)[C@H](CCCN)NC(=O)[C@H](C(C)C)NC(=O)[C@H](Cc2ccc(-c3ccccc3)cc2)NC(=O)[C@H](C(C)C)NC(=O)[C@H](Cc2c[nH]c3ccccc23)NC(=O)[C@H](CC(=O)O)NC(=O)[C@H](Cc2ccc(OCC(=O)O)cc2)NC(=O)[C@H](Cc2ccncc2)NC(=O)CSC[C@@H](C(=O)N[C@@H](C)C(N)=O)NC(=O)[C@H](C(C)O)NC(=O)[C@H](C(C)C)NC(=O)[C@H](CC2CCCCC2)NC(=O)[C@H](CCN)NC1=O` (stereo partly shown) [Compound 2522] are within 0.2 log units of each other in pIC50: 8.19 for the first, 8.16 for the second.

Going from `CCC(C)[C@@H]1NC(=O)[C@H](Cc2ccc(-c3ccccc3)cc2)NC(=O)[C@H](C(C)C)NC(=O)[C@H](Cc2c[nH]c3ccccc23)NC(=O)[C@H](CC(=O)O)NC(=O)[C@H](Cc2ccc(OCC(=O)O)cc2)NC(=O)[C@H](CN)NC(=O)CSC[C@@H](C(=O)N[C@@H](C)C(N)=O)NC(=O)[C@H](C(C)O)NC(=O)[C@H](C(C)C)NC(=O)[C@H](CC2CCCCC2)NC(=O)[C@H](CCN)NC(=O)[C@@H](CC(C)C)NC(=O)[C@H](CCCN)NC1=O` (stereo partly shown) [Compound 2520] to `CCC(C)[C@@H]1NC(=O)[C@H](Cc2ccc(-c3ccccc3)cc2)NC(=O)[C@H](C(C)C)NC(=O)[C@H](Cc2c[nH]c3ccccc23)NC(=O)[C@H](CC(=O)O)NC(=O)[C@H](Cc2ccc(OCC(=O)O)cc2)NC(=O)[C@H](Cc2cccc3ccccc23)NC(=O)CSC[C@@H](C(=O)N[C@@H](C)C(N)=O)NC(=O)[C@H](C(C)O)NC(=O)[C@H](C(C)C)NC(=O)[C@H](CC2CCCCC2)NC(=O)[C@H](CCN)NC(=O)[C@@H](CC(C)C)NC(=O)[C@H](CCCN)NC1=O` (stereo partly shown) [Compound 2521], the pIC50 falls from 7.98 to 7.42 (0.56 log units).

With `CC(C)C[C@H]1NC(=O)[C@H](CCCN)NC(=O)[C@H](C(C)C)NC(=O)[C@H](Cc2ccc(-c3ccccc3)cc2)NC(=O)[C@H](C(C)C)NC(=O)[C@H](Cc2c[nH]c3ccccc23)NC(=O)[C@H](CC(=O)O)NC(=O)[C@H](Cc2ccc(OCC(=O)O)cc2)NC(=O)[C@@H]2CC(N)CN2C(=O)CSC[C@@H](C(=O)N[C@@H](C)C(N)=O)NC(=O)[C@H](C(C)O)NC(=O)[C@H](C(C)C)NC(=O)[C@H](CC2CCCCC2)NC(=O)[C@H](CCN)NC1=O` (stereo partly shown) [Compound 2523] the pIC50 was 8.02.
